According to US11419953B2, “Reduced metastable complex macrocyclic contrast agents” (INVENTURE, LLC, priority 2020, dated 2022):

How the values were obtained:
[1] = Free Gd3+ release in vitro, comparative data (Example 6); format: physicochemical; conditions: after 30 minutes at standard dosing
[2] = cited from earlier work
[3] = commercial product stored in bottle; cited from earlier work

| In Vitro PPM (free GAD released) [1] | SMILES | stability lower at pH 7.4 than for the fully deprotonated complex [2] | in-bottle measured free gadolinium [3] |
| --- | --- | --- | --- |
| 1,204 +/− 3.9 PPM | CNC[C@H](O)[C@@H](O)[C@H](O)[C@H](O)CO.O=C([O-])CN1CCN(CC(=O)[O-])CCN(CC(=O)O)CCN(CC(=O)[O-])CC1.[Gd+3] [DOTAREM, gadoterate meglumine] | – | – |
| – | O=C([O-])CN1CCN(CC(=O)[O-])CCN(CC(=O)[O-])CCN(CC(=O)[O-])CC1.[Gd+3] [Gd-DOTA] | 7 orders of magnitude | 10^13 Gd3+ ions in 100 ml of GCA product |
